From patent US9518008B2, “(1S,2S,3S,4R)-3-[(1S)-1-acetylamino-2-ethyl-butyl]-4-uanidino-2-hydroxyl-cyclopentyl-1-carboxylic acid hydrates pharmaceutical uses thereof” (Institute of Pharmacology and Toxicology Academy of …, priority 2007, dated 2016)
pIC50: −log10 of the molar value. Where two headings read alike, the source gives them in different places.

Experiments:
[1] = Determination of hygroscopicity (high humidity test); type: physicochemical
Protocol: The hygroscopicity of the compound of the invention can be tested by a standard hygroscopicity test method. For example, the compound is stored in a sealed vessel at room temperature at a relative humidity of 92.5%, 80% or 75%, and the change in moisture content of the compound is tested by sampling at regular intervals.
At the 5th and 10th days, the products were sampled and determined in aspect of important items relating to stability investigation. […] If the weight gain of a product due to moisture absorption was more than 5%, the product was further experimented according to the same method under a relative humidity of 75%±5%. If the weight gain of a product due to moisture absorption was less than 5%, and other items thereof under investigation met the relevant requirements, no more experiment was needed. The humidity-constant condition could be achieved by placing a saturated saline solution at the lower part of a sealed vessel, e.g., a desiccator, and a NaCl saturated solution (15.5-60° C., a relative humidity of 75%±1%) or a KNO3 saturated solution (25° C., a relative humidity of 92.5%) may be selected according to the requirement of different relative humidity.

[2] = test system: influenza virus strain FM1 (H1N1); assay: Anti-influenza activity in infected mice (survival); type: in vivo, mice (BALB/C); conditions: 5 times, 14th day after infection
Protocol: A virus drip is prepared typically by including 500 pfu (plaque forming unit) of mice-compliance influenza virus strain in 50 μl phosphate buffer (containing 0.42% bovine serum albumin), and then dropped into nasal cavity of mice to infect them (BALB/C, female, aged 5-6 weeks, weighted 20 g). The compound of the invention is suspended in physiological saline to obtain different doses, typically from 2.5 mg/kg to 40 mg/kg, and is administered to the mice at different time before and after the viral infection, typically administered by intraperitoneal injection for 5 times, i.e., 1 hour, and 2, 3, 4, 5 days after the viral infection. The assay is performed by using 8 or 12, typically 10 mice. The result is expressed by the ratio of the number of survival mice the 14th day after the viral infection to the number of the mice in assay.
A solution was prepared by including 500 pfu (plaque forming unit) of mice-compliance influenza virus strain FM1 (H1N1) in 50 μl phosphate buffer (containing 0.42% bovine serum albumin), and then dropped into nasal cavity of mice (BALB/C, female, aged 5-6 weeks, weighted 20 g) to infect them with an infective dose of 23.7LD50. The compound of the invention was suspended in physiological saline, and was administered in doses of 2.5 mg/kg, 5 mg/kg, 10 mg/kg, 20 mg/kg to the mice by intraperitoneal injection for 5 times, i.e., 1 hour, and 2, 3, 4, 5 days after the viral infection, respectively. The assay was performed by 10 mice. The result was expressed by the ratio of the number of survival mice the 14th day after the viral infection to the number of the mice in assay.

[3] = Stability of RWJ270201 in aqueous solution; type: physicochemical; conditions: as shown by study
[4] = test system: NA of 7 influenza A virus stains; conditions: 7 influenza A virus strains; cited from earlier work
[5] = test system: NA of 4 influenza B virus strains; conditions: cited from earlier work
[6] = test system: influenza virus strain A/HongKong/156/97 (H5N1); conditions: cited from earlier work
[7] = test system: influenza virus strain B/Hong Kong/5/72; conditions: 1 mg/kg/day; cited from earlier work
[8] = test system: influenza virus strain A/Bayern/07/95 (H1N1); conditions: 10 mg/kg/day; cited from earlier work
[9] = test system: influenza virus strain A/NWS/33 (H1N1); conditions: 10 mg/kg/day; cited from earlier work
[10] = rats, 1000 mg/kg/day for 5 days; cited from earlier work
[11] = Determination of solubility; conditions: Solvent: Water; 25±2° C.
Protocol: According to the invention, the solubility of the compound of the invention can be tested by using a standard solubility test method.
While vigorously stirring for 30 seconds every 5 minutes, the dissolution of the powder was observed within 30 minutes.

[12] = Relative humidity 92.5%, 25° C.

Compound: CCC(CC)[C@H](NC(C)=O)[C@H]1[C@H](O)[C@@H](C(=O)O)C[C@H]1NC(=N)N [Anhydrous, (1S,2S,3S,4R)-3-[(1S)-1-acetylamino-2-ethyl-butyl]-4-guanidino-2-hydroxy-cyclopentyl-1-carboxylic acid, reference compound]
- Hygroscopicity at the 5th day ([1]; Relative humidity 75%): 7.23%
- Hygroscopicity at the 10th day ([1]; Relative humidity 75%): 12.88%
- Hygroscopicity at the 5th day [1, 12]: 8.38%
- Hygroscopicity at the 10th day [1, 12]: 13.53%
- hygroscopicity ([1]; as shown by study): easily hygroscopic
- weight gain ([1]; ten-day observation test, sealed vessel, room temperature, high relative humidity): about 13.53%
- Survival number ([2]; 2.5 mg/kg intraperitoneal): 5/10
- Survival rate ([2]; 2.5 mg/kg intraperitoneal): 50%
- Survival number ([2]; 5.0 mg/kg intraperitoneal): 7/10
- Survival rate ([2]; 5.0 mg/kg intraperitoneal): 70%
- Survival number ([2]; 10 mg/kg intraperitoneal): 7/10
- Survival rate ([2]; 10 mg/kg intraperitoneal): 70%
- Survival number ([2]; 20 mg/kg intraperitoneal): 9/10
- Survival rate ([2]; 20 mg/kg intraperitoneal): 90%
- stability in aqueous solution [3]: unstable in aqueous solution
- pIC50 [4]: 8.85 to 10.00
- pIC50 [5]: 7.96 to 9.22
- Survival rate ([6]; group of 10 mg/kg/day): up to 100%
- death rate ([6]; infected mice): markedly reduce the death rate
- diffusion of virus to brain tissue ([6]; infected mice): prevent the diffusion of virus to brain tissue
- virus titer in lung tissue ([6]; infected mice): markedly reduce virus titer in lung tissue
- Survival rate ([6]; mouse, in vivo, 0.1 mg/kg/day): up to 70%
- arterial oxygen saturation [7]: prevent the reduction in arterial oxygen saturation
- death rate [7]: reduce the death rate
- efficacy compared with oseltamivir [7]: more effective than oseltamivir
- lung consolidation [7]: inhibit lung consolidation
- effect on infection [8]: effectively antagonize the infection
- death rate [9]: reduce the death rate
- toxic side effect [10]: no toxic side effect was found

Compound: (1S,2S,3S,4R)-3-[(1S)-1-acetylamino-2-ethyl-butyl]-4-guanidino-2-hydroxy-cyclopentyl-1-carboxylic acid dihydrate
- Solubility [11]: 50 mg/mL
- Hygroscopicity at the 5th day ([1]; Relative humidity 75%): 2.21%
- Hygroscopicity at the 10th day ([1]; Relative humidity 75%): 2.54%
- Hygroscopicity at the 5th day [1, 12]: 2.54%
- Hygroscopicity at the 10th day [1, 12]: 2.98%
